Experimental data: US8192962B2, “Processes for detecting toxic substances” (Daikin Industries, Ltd., priority 2001, dated 2012)

Test system: Metabolism protein genes
Assay: DNA chip mRNA expression in yeast, metabolism protein genes (Table 7)
Assay type: cell-based, Saccharomyces cerevisiae S288C
Experimental: Yeast (Saccharomyces cerevisiae S288C (α SUC2mal mel gap2 CUP1)) were incubated at 25° C. on YPD medium (yeast extract 1%, polypepton 2%, glucose 2%). One of toxic chemical substances was added to the cells at logarithmic growth phase, and the cells were further incubated for two hours. Cells were cultured without any chemical substance in the same condition, and were used as control. Concentrations of the chemical substances were defined to inhibit the growth of the yeast but not lead to death.
After completion of the incubation, the culture was centrifuged to collect the cells. To the cells, sodium acetate buffer (50 mM sodium acetate, 10 mM EDTA, 1% SDS) was added, and the mixture was shaken at 65° C. for five minutes, followed by returning to room temperature, and obtaining the supernatant, of which the procedures were repeated two times. To the supernatant, ½ amount of a solution of phenol/chloroform was added, and the mixture was centrifuged to give a supernatant, which was added with an equal amount of chloroform, and the mixture was centrifuged to give a supernatant. To the supernatant, an equal amount of isopropanol containing 0.3 M sodium acetate was added, and the mixture was allowed to stand at room temperature for 30 minutes, after which the mixture was centrifuged to give a sediment of the whole RNAs. Seventy % ethanol was added to the sediment, and the mixture was again centrifuged to give a sediment, which was then dried and dissolved in water. mRNA was isolated from the whole RNAs as followings. In view of the fact that a poly A chain is attached to the 3′ terminus of mRNA, a polynucleotide having a poly T structure which was immobilized on the surface of latex beads was used to trap the mRNA, and then the mRNA was washed and eluted with spine column (Oligotex-dT30<Super>mRNA Purification Kit, Takara). Reverse transcription of the mRNA was conducted with a reverse transcriptase (Super Script II Reverse Transcriptase; catalogue No. 18064-014, GibcoBRL) using fluorescence-labeled nucleotides to give cDNAs that were introduced with Cy3-dUTP or Cy5-dUTP during the reverse transcription.
The labeled cDNAs were dissolved in TE buffer (10mM Tris-HCl/1 mM EDTA, pH8.0), and the solution was dropped on the DNA chip containing the whole genes of yeast (DNA Chip Research Inc. Japan) so that the cDNAs were hybridized on the DNA chip at 65° C. for over 12 hours. The fluoresces intensity of the DNA chip was read with a scanner, and the ratio relative to the fluorescence intensity resulting from the absence of chemical substance was estimated as the following, which is shown in Tables 1 to 9: […]

[Cl][Cd][Cl] [(2), CdCl2]
0.7: level of expressed mRNA in the presence/in the absence of chemical substance (yeast gene YLR006C) | level of expressed mRNA in the presence/in the absence of chemical substance (yeast gene YMR015C) | level of expressed mRNA in the presence/in the absence of chemical substance (yeast gene YMR205C) | The level of expressed mRNA in the presence of chemical substance/The level of expressed mRNA in the absence of chemical substance (yeast gene YMR296C) | level of expressed mRNA in the presence/in the absence of chemical substance (yeast gene YOL156W) | level of expressed mRNA in the presence/in the absence of chemical substance (yeast gene YOR128C) | level of expressed mRNA in the presence/in the absence of chemical substance (yeast gene YOR348C) | level of expressed mRNA in the presence/in the absence of chemical substance (yeast gene YPR165W)
3.0: The level of expressed mRNA in the presence of chemical substance/The level of expressed mRNA in the absence of chemical substance (yeast gene YMR105C)
1.9: The level of expressed mRNA in the presence of chemical substance/The level of expressed mRNA in the absence of chemical substance (yeast gene YLR299W)
1.0: The level of expressed mRNA in the presence of chemical substance/The level of expressed mRNA in the absence of chemical substance (yeast gene YKL104C) | level of expressed mRNA in the presence/in the absence of chemical substance (yeast gene YKL157W) | The level of expressed mRNA in the presence of chemical substance/The level of expressed mRNA in the absence of chemical substance (yeast gene YLR273C) | level of expressed mRNA in the presence/in the absence of chemical substance (yeast gene YLR284C) | level of expressed mRNA in the presence/in the absence of chemical substance (yeast gene YMR011W) | The level of expressed mRNA in the presence of chemical substance/The level of expressed mRNA in the absence of chemical substance (yeast gene YMR020W) | level of expressed mRNA in the presence/in the absence of chemical substance (yeast gene YOL116W) | level of expressed mRNA in the presence/in the absence of chemical substance (yeast gene YOR251C)
1.4: The level of expressed mRNA in the presence of chemical substance/The level of expressed mRNA in the absence of chemical substance (yeast gene YLR180W) | level of expressed mRNA in the presence/in the absence of chemical substance (yeast gene YNL025C) | The level of expressed mRNA in the presence of chemical substance/The level of expressed mRNA in the absence of chemical substance (yeast gene YNL106C) | The level of expressed mRNA in the presence of chemical substance/The level of expressed mRNA in the absence of chemical substance (yeast gene YNL169C) | The level of expressed mRNA in the presence of chemical substance/The level of expressed mRNA in the absence of chemical substance (yeast gene YOR336W)
1.1: The level of expressed mRNA in the presence of chemical substance/The level of expressed mRNA in the absence of chemical substance (yeast gene YKL215C) | level of expressed mRNA in the presence/in the absence of chemical substance (yeast gene YMR323W) | level of expressed mRNA in the presence/in the absence of chemical substance (yeast gene YOR002W) | level of expressed mRNA in the presence/in the absence of chemical substance (yeast gene YPL057C)
3.6: The level of expressed mRNA in the presence of chemical substance/The level of expressed mRNA in the absence of chemical substance (yeast gene YNL331C)
1.8: The level of expressed mRNA in the presence of chemical substance/The level of expressed mRNA in the absence of chemical substance (yeast gene YML054C)
1.3: The level of expressed mRNA in the presence of chemical substance/The level of expressed mRNA in the absence of chemical substance (yeast gene YKL091C) | The level of expressed mRNA in the presence of chemical substance/The level of expressed mRNA in the absence of chemical substance (yeast gene YKL152C) | The level of expressed mRNA in the presence of chemical substance/The level of expressed mRNA in the absence of chemical substance (yeast gene YNL012W) | The level of expressed mRNA in the presence of chemical substance/The level of expressed mRNA in the absence of chemical substance (yeast gene YNL045W) | The level of expressed mRNA in the presence of chemical substance/The level of expressed mRNA in the absence of chemical substance (yeast gene YNL104C) | The level of expressed mRNA in the presence of chemical substance/The level of expressed mRNA in the absence of chemical substance (yeast gene YNR019W) | The level of expressed mRNA in the presence of chemical substance/The level of expressed mRNA in the absence of chemical substance (yeast gene YOR099W) | level of expressed mRNA in the presence/in the absence of chemical substance (yeast gene YOR178C)
0.4: The level of expressed mRNA in the presence of chemical substance/The level of expressed mRNA in the absence of chemical substance (yeast gene YLR307W)
4.5: The level of expressed mRNA in the presence of chemical substance/The level of expressed mRNA in the absence of chemical substance (yeast gene YLR348C) | The level of expressed mRNA in the presence of chemical substance/The level of expressed mRNA in the absence of chemical substance (yeast gene YOL165C)
0.6: level of expressed mRNA in the presence/in the absence of chemical substance (yeast gene YLR044C) | level of expressed mRNA in the presence/in the absence of chemical substance (yeast gene YLR056W) | level of expressed mRNA in the presence/in the absence of chemical substance (yeast gene YLR304C) | level of expressed mRNA in the presence/in the absence of chemical substance (yeast gene YML022W)
0.3: level of expressed mRNA in the presence/in the absence of chemical substance (yeast gene YLR372W)
0.8: level of expressed mRNA in the presence/in the absence of chemical substance (yeast gene YKL060C) | level of expressed mRNA in the presence/in the absence of chemical substance (yeast gene YKL148C) | The level of expressed mRNA in the presence of chemical substance/The level of expressed mRNA in the absence of chemical substance (yeast gene YKL213C) | level of expressed mRNA in the presence/in the absence of chemical substance (yeast gene YLR058C) | level of expressed mRNA in the presence/in the absence of chemical substance (yeast gene YLR081W) | The level of expressed mRNA in the presence of chemical substance/The level of expressed mRNA in the absence of chemical substance (yeast gene YLR300W) | The level of expressed mRNA in the presence of chemical substance/The level of expressed mRNA in the absence of chemical substance (yeast gene YMR189W) | The level of expressed mRNA in the presence of chemical substance/The level of expressed mRNA in the absence of chemical substance (yeast gene YNL231C) | The level of expressed mRNA in the presence of chemical substance/The level of expressed mRNA in the absence of chemical substance (yeast gene YNR033W) | The level of expressed mRNA in the presence of chemical substance/The level of expressed mRNA in the absence of chemical substance (yeast gene YOL126C) | level of expressed mRNA in the presence/in the absence of chemical substance (yeast gene YOR085W) | level of expressed mRNA in the presence/in the absence of chemical substance (yeast gene YOR103C) | level of expressed mRNA in the presence/in the absence of chemical substance (yeast gene YPL148C) | level of expressed mRNA in the presence/in the absence of chemical substance (yeast gene YPR113W)
1.7: The level of expressed mRNA in the presence of chemical substance/The level of expressed mRNA in the absence of chemical substance (yeast gene YML070W) | level of expressed mRNA in the presence/in the absence of chemical substance (yeast gene YMR083W) | The level of expressed mRNA in the presence of chemical substance/The level of expressed mRNA in the absence of chemical substance (yeast gene YOR130C)
1.5: level of expressed mRNA in the presence/in the absence of chemical substance (yeast gene YKR034W) | The level of expressed mRNA in the presence of chemical substance/The level of expressed mRNA in the absence of chemical substance (yeast gene YNL332W) | level of expressed mRNA in the presence/in the absence of chemical substance (yeast gene YOL108C) | level of expressed mRNA in the presence/in the absence of chemical substance (yeast gene YPR183W)
3.7: The level of expressed mRNA in the presence of chemical substance/The level of expressed mRNA in the absence of chemical substance (yeast gene YJR155W)
5.8: The level of expressed mRNA in the presence of chemical substance/The level of expressed mRNA in the absence of chemical substance (yeast gene YPR167C)
3.8: The level of expressed mRNA in the presence of chemical substance/The level of expressed mRNA in the absence of chemical substance (yeast gene YLL058W)
2.5: level of expressed mRNA in the presence/in the absence of chemical substance (yeast gene YLR354C) | The level of expressed mRNA in the presence of chemical substance/The level of expressed mRNA in the absence of chemical substance (yeast gene YPL017C)
2.6: level of expressed mRNA in the presence/in the absence of chemical substance (yeast gene YOR176W)
1.6: level of expressed mRNA in the presence/in the absence of chemical substance (yeast gene YMR261C) | The level of expressed mRNA in the presence of chemical substance/The level of expressed mRNA in the absence of chemical substance (yeast gene YMR271C)
1.2: level of expressed mRNA in the presence/in the absence of chemical substance (yeast gene YLR089C) | level of expressed mRNA in the presence/in the absence of chemical substance (yeast gene YNL192W) | The level of expressed mRNA in the presence of chemical substance/The level of expressed mRNA in the absence of chemical substance (yeast gene YOL153C) | level of expressed mRNA in the presence/in the absence of chemical substance (yeast gene YOR142W) | level of expressed mRNA in the presence/in the absence of chemical substance (yeast gene YPL135W) | The level of expressed mRNA in the presence of chemical substance/The level of expressed mRNA in the absence of chemical substance (yeast gene YPR026W)
0.5: The level of expressed mRNA in the presence of chemical substance/The level of expressed mRNA in the absence of chemical substance (yeast gene YOL058W) | level of expressed mRNA in the presence/in the absence of chemical substance (yeast gene YOL086C)
0.9: The level of expressed mRNA in the presence of chemical substance/The level of expressed mRNA in the absence of chemical substance (yeast gene YKL035W) | The level of expressed mRNA in the presence of chemical substance/The level of expressed mRNA in the absence of chemical substance (yeast gene YMR008C) | The level of expressed mRNA in the presence of chemical substance/The level of expressed mRNA in the absence of chemical substance (yeast gene YNL322C) | The level of expressed mRNA in the presence of chemical substance/The level of expressed mRNA in the absence of chemical substance (yeast gene YNR059W) | level of expressed mRNA in the presence/in the absence of chemical substance (yeast gene YOR108W) | The level of expressed mRNA in the presence of chemical substance/The level of expressed mRNA in the absence of chemical substance (yeast gene YOR347C) | level of expressed mRNA in the presence/in the absence of chemical substance (yeast gene YPL028W)
2.7: The level of expressed mRNA in the presence of chemical substance/The level of expressed mRNA in the absence of chemical substance (yeast gene YML100W)
